Experimental data taken from ChEMBL document CHEMBL1201861, “Genomics of Drug Sensitity in Cancer screening data, Wellcome Trust Sanger Institute”.

Tests used:
Assay in all cases: cells
GCT = assay type: functional, cell-based, Homo sapiens; details: Homo sapiens, GCT;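 further: GCT cell line proliferation inhibition, read out with a cell viability assay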
Description: SANGER: Inhibition of human GCT cell growth in a cell viability assay.

NCI-H1838 = assay type: functional, cell-based, Homo sapiens; details: Homo sapiens, NCI-H1838;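 further: growth inhibition of NCI-H1838 cells, determined with a cell viability readout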
Description: SANGER: Inhibition of human NCI-H1838 cell growth in a cell viability assay.

SK-N-FI = assay type: functional, cell-based, Homo sapiens; details: Homo sapiens, SK-N-FI;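 further: cell viability assay measuring growth inhibition of human SK-N-FI cells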
Description: SANGER: Inhibition of human SK-N-FI cell growth in a cell viability assay.

ETK-1 = assay type: functional, cell-based, Homo sapiens; details: Homo sapiens, ETK-1;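 further: growth inhibition of human ETK-1 cells, read out with a cell viability assay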
Description: SANGER: Inhibition of human ETK-1 cell growth in a cell viability assay.

SW 962 = assay type: functional, cell-based, Homo sapiens; details: Homo sapiens, SW 962;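 further: growth inhibition of human SW962 cells, read out by a cell viability assay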
Description: SANGER: Inhibition of human SW962 cell growth in a cell viability assay.

SAS = assay type: functional, cell-based, Homo sapiens; details: Homo sapiens, SAS;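 further: growth inhibition of SAS cells, read out with a cell viability assay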
Description: SANGER: Inhibition of human SAS cell growth in a cell viability assay.

Becker = assay type: functional, cell-based, Homo sapiens; details: Homo sapiens, Becker;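 further: growth inhibition of Becker cells, read out with a cell viability assay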
Description: SANGER: Inhibition of human Becker cell growth in a cell viability assay.

UACC-893 = assay type: functional, cell-based, Homo sapiens; details: Homo sapiens, UACC-893
Description: SANGER: Inhibition of human UACC-893 cell growth in a cell viability assay.

KP-4 = assay type: functional, cell-based, Homo sapiens; details: Homo sapiens, KP-4; read-out: IC50;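 further: human KP-4 cells, with growth inhibition read out through a cell viability assay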
Description: SANGER: Inhibition of human KP-4 cell growth in a cell viability assay.

SW684 = assay type: functional, cell-based, Homo sapiens; details: Homo sapiens, SW684;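 further: growth inhibition of human SW684 cells, measured by a cell viability assay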
Description: SANGER: Inhibition of human SW684 cell growth in a cell viability assay.

KYSE-520 cell line = assay type: functional, cell-based, Homo sapiens; details: Homo sapiens, KYSE-520;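 further: growth inhibition of human KYSE-520 cells, read out with a viability assay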
Description: SANGER: Inhibition of human KYSE-520 cell growth in a cell viability assay.

KALS-1 = assay type: functional, cell-based, Homo sapiens; details: Homo sapiens, KALS-1;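 further: growth inhibition of KALS-1 cells, determined with a cell viability assay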
NCI-H2126 = assay type: functional, cell-based, Homo sapiens; details: Homo sapiens, NCI-H2126;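 further: growth inhibition of the cancer cell line, determined with a cell viability readout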
Description: SANGER: Inhibition of human NCI-H2126 cell growth in a cell viability assay.

NB69 = assay type: functional, cell-based, Homo sapiens; details: Homo sapiens, NB69;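 further: growth inhibition of NB69 cells, determined by a cell viability assay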
Description: SANGER: Inhibition of human NB69 cell growth in a cell viability assay.

NB13 = assay type: functional, cell-based, Homo sapiens; details: Homo sapiens, NB13;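 further: cell viability readout measuring growth inhibition of human NB13 cells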
Description: SANGER: Inhibition of human NB13 cell growth in a cell viability assay.

IA-LM = assay type: functional, cell-based, Homo sapiens; details: Homo sapiens, IA-LM;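 further: cell viability assay measuring growth inhibition of human IA-LM cells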
Description: SANGER: Inhibition of human IA-LM cell growth in a cell viability assay.

NCI-H2122 = assay type: functional, cell-based, Homo sapiens; details: Homo sapiens, NCI-H2122;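 further: growth inhibition of the cells, read out with a cell viability assay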
Description: SANGER: Inhibition of human NCI-H2122 cell growth in a cell viability assay.

SK-NEP-1 = assay type: functional, cell-based; details: Homo sapiens;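 further: growth inhibition of human SK-NEP-1 cells, read out by a cell viability assay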
Description: SANGER: Inhibition of human SK-NEP-1 cell growth in a cell viability assay.

NCI-H1563 = assay type: functional, cell-based, Homo sapiens; details: Homo sapiens, NCI-H1563;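 further: growth inhibition of human NCI-H1563 cells, read out with a cell viability assay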
Description: SANGER: Inhibition of human NCI-H1563 cell growth in a cell viability assay.

HT1197 = assay type: functional, cell-based, Homo sapiens, HT-1197; details: Homo sapiens, HT1197
Description: SANGER: Inhibition of human HT-1197 cell growth in a cell viability assay.

BT-20 = assay type: functional, cell-based, Homo sapiens; details: Homo sapiens, BT-20;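 further: cell viability assay measuring suppression of growth in human BT-20 cells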
Description: SANGER: Inhibition of human BT-20 cell growth in a cell viability assay.

HT = assay type: functional, cell-based; details: Homo sapiens
Description: SANGER: Inhibition of human HT cell growth in a cell viability assay.

BXPC-3 = assay type: functional, cell-based, Homo sapiens; details: Homo sapiens, BXPC-3;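 further: growth inhibition of human BxPC-3 cells, read out by a cell viability assay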
Description: SANGER: Inhibition of human BxPC-3 cell growth in a cell viability assay.

Ca-Ski = assay type: functional, cell-based; details: Homo sapiens;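 further: cell viability assay measuring inhibition of Ca-Ski cell growth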
Description: SANGER: Inhibition of human Ca-Ski cell growth in a cell viability assay.

LAMA-84 = assay type: functional, cell-based; details: Homo sapiens;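 further: growth inhibition of LAMA-84 cells, read out with a cell viability assay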
Description: SANGER: Inhibition of human LAMA-84 cell growth in a cell viability assay.

BHY = assay type: functional, cell-based, Homo sapiens; details: Homo sapiens, BHY;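 further: cell growth inhibition read out by a viability assay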
Description: SANGER: Inhibition of human BHY cell growth in a cell viability assay.

NEC8 = assay type: functional, cell-based, Homo sapiens; details: Homo sapiens, NEC8;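 further: growth inhibition of human NEC8 cells, read out by a cell viability assay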
Description: SANGER: Inhibition of human NEC8 cell growth in a cell viability assay.

DMS-114 = assay type: functional, cell-based, Homo sapiens; details: Homo sapiens, DMS-114
NCI-H1395 = assay type: functional, cell-based, Homo sapiens; details: Homo sapiens, NCI-H1395;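 further: cell viability assay read-out quantifying reduced proliferation of human NCI-H1395 cells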
Description: SANGER: Inhibition of human NCI-H1395 cell growth in a cell viability assay.

A101D = assay type: functional, cell-based, Homo sapiens; details: Homo sapiens, A101D;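 further: growth inhibition of the cell line, measured with a viability assay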
Description: SANGER: Inhibition of human A101D cell growth in a cell viability assay.

SK-MEL-24 = assay type: functional, cell-based; details: Homo sapiens;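 further: growth inhibition read out by a cell viability assay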
Description: SANGER: Inhibition of human SK-MEL-24 cell growth in a cell viability assay.

CTB-1 = assay type: functional, cell-based; details: Homo sapiens
Description: SANGER: Inhibition of human CTB-1 cell growth in a cell viability assay.

YKG-1 = assay type: functional, cell-based, Homo sapiens; details: Homo sapiens, YKG-1;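 further: cell growth inhibition, read out with a viability assay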
Description: SANGER: Inhibition of human YKG-1 cell growth in a cell viability assay.

LB2241-RCC = assay type: functional, cell-based, Homo sapiens; details: Homo sapiens, LB2241-RCC;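 further: cell viability assay measuring how strongly the cultured human renal carcinoma line is prevented from growing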
Description: SANGER: Inhibition of human LB2241-RCC cell growth in a cell viability assay.

SK-MEL-28 = assay type: functional, cell-based; details: Homo sapiens;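 further: growth inhibition of human SK-MEL-28 cells, read out with a cell viability assay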
Description: SANGER: Inhibition of human SK-MEL-28 cell growth in a cell viability assay.

SW1783 = assay type: functional, cell-based; details: Homo sapiens;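 further: cell growth inhibition measured with a viability assay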
Description: SANGER: Inhibition of human SW1783 cell growth in a cell viability assay.

MCF7 = assay type: functional, cell-based, Homo sapiens; details: Homo sapiens, MCF7;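 further: growth inhibition of human MCF7 cells, read out with a cell viability assay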
Description: SANGER: Inhibition of human MCF7 cell growth in a cell viability assay.

G-401 = assay type: functional, cell-based, Homo sapiens; details: Homo sapiens, G-401
Description: SANGER: Inhibition of human G-401 cell growth in a cell viability assay.

ALL-PO = assay type: functional, cell-based; details: Homo sapiens;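 further: growth inhibition of ALL-PO cells, read out by a cell viability assay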
Description: SANGER: Inhibition of human ALL-PO cell growth in a cell viability assay.

NB12 = assay type: functional, cell-based, Homo sapiens; details: Homo sapiens, NB12;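 further: growth inhibition of human NB12 cells, read out by a cell viability assay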
Description: SANGER: Inhibition of human NB12 cell growth in a cell viability assay.

OS-RC-2 = assay type: functional, cell-based, Homo sapiens; details: Homo sapiens, OS-RC-2;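 further: growth inhibition of human OS-RC-2 cells, measured by a cell viability assay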
Description: SANGER: Inhibition of human OS-RC-2 cell growth in a cell viability assay.

NCI-H2087 = assay type: functional, cell-based, Homo sapiens; details: Homo sapiens, NCI-H2087;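 further: growth inhibition determined with a cell viability readout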
Description: SANGER: Inhibition of human NCI-H2087 cell growth in a cell viability assay.

5637 = assay type: functional, cell-based, Homo sapiens; details: Homo sapiens
Description: SANGER: Inhibition of human 5637 cell growth in a cell viability assay.

Lu-65 = assay type: functional, cell-based; details: Homo sapiens;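 further: growth inhibition of Lu-65 cancer cells, read out by a cell viability assay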
Description: SANGER: Inhibition of human LU-65 cell growth in a cell viability assay.

MG-63 = assay type: functional, cell-based, Homo sapiens; details: Homo sapiens, MG-63;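 further: growth inhibition of human MG-63 cells, read out with a cell viability assay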
Description: SANGER: Inhibition of human MG-63 cell growth in a cell viability assay.

HCC1806 = assay type: functional, cell-based, Homo sapiens; details: Homo sapiens, HCC1806;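 further: growth inhibition of the cancer cell line, determined with a cell viability assay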
Description: SANGER: Inhibition of human HCC1806 cell growth in a cell viability assay.

SW948 = assay type: functional, cell-based, Homo sapiens; details: Homo sapiens, SW948;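 further: growth inhibition of SW948 cells, read out with a cell viability assay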
Description: SANGER: Inhibition of human SW948 cell growth in a cell viability assay.

LB373-MEL-D = assay type: functional, cell-based, Homo sapiens; details: Homo sapiens, LB373-MEL-D;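 further: growth inhibition of the cell line, read out in a cell viability assay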
Description: SANGER: Inhibition of human LB373-MEL-D cell growth in a cell viability assay.

D-263MG = assay type: functional, cell-based, Homo sapiens; details: Homo sapiens, D-263MG
Description: SANGER: Inhibition of human D-263MG cell growth in a cell viability assay.

CTV-1 = assay type: functional, cell-based; details: Homo sapiens;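 further: growth inhibition of the cell line, read out with a cell viability assay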
Description: SANGER: Inhibition of human CTV-1 cell growth in a cell viability assay.

HEC-1 = assay type: functional, cell-based, Homo sapiens; details: Homo sapiens, HEC-1;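 further: growth inhibition of the cell line, read out with a cell viability assay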
Description: SANGER: Inhibition of human HEC-1 cell growth in a cell viability assay.

SW626 = assay type: functional, cell-based, Homo sapiens; details: Homo sapiens, SW626;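 further: growth inhibition of SW626 cells, measured with a cell viability assay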
Description: SANGER: Inhibition of human SW626 cell growth in a cell viability assay.

COC(=O)CNC(=O)C(=O)OC
IC50 (GCT): > 4000 µM | IC50 (NCI-H1838): > 4000 µM | IC50 (SK-N-FI): > 4000 µM | IC50 (ETK-1): 525 µM | IC50 (SW 962): 265 µM | IC50 (SAS): 237 µM | IC50 (Becker): 274 µM | IC50 (UACC-893): > 4000 µM | IC50 (KP-4): 1800 µM | IC50 (SW684): 2470 µM | IC50 (KYSE-520 cell line): 613 µM | IC50 (KALS-1): 624 µM | IC50 (NCI-H2126): 1800 µM | IC50 (NB69): 213 µM | IC50 (NB13): 659 µM | IC50 (IA-LM): 153 µM | IC50 (NCI-H2122): 74.4 µM | IC50 (SK-NEP-1): 976 µM | IC50 (NCI-H1563): 124 µM | IC50 (HT1197): 315 µM | IC50 (BT-20): 947 µM | IC50 (HT): 132 µM | IC50 (BXPC-3): 639 µM | IC50 (Ca-Ski): 157 µM | IC50 (LAMA-84): 2110 µM | IC50 (BHY): 465 µM | IC50 (NEC8): 406 µM | IC50 (DMS-114): > 4000 µM | IC50 (NCI-H1395): > 4000 µM | IC50 (A101D): 163 µM | IC50 (SK-MEL-24): > 4000 µM | IC50 (CTB-1): 86 µM | IC50 (YKG-1): 767 µM | IC50 (LB2241-RCC): 537 µM | IC50 (SK-MEL-28): 569 µM | IC50 (SW1783): 156 µM | IC50 (MCF7): > 4000 µM | IC50 (G-401): 1460 µM | IC50 (ALL-PO): 69.9 µM | IC50 (NB12): 85.4 µM | IC50 (OS-RC-2): 1750 µM | IC50 (NCI-H2087): 108 µM | IC50 5637: 857 µM | IC50 (Lu-65): 2360 µM | IC50 (MG-63): 144 µM | IC50 (HCC1806): 1840 µM | IC50 (SW948): 2620 µM | IC50 (LB373-MEL-D): 710 µM | IC50 (D-263MG): 410 µM | IC50 (CTV-1): 468 µM | IC50 (HEC-1): 954 µM | IC50 (SW626): 1840 µM

CN(C)C/C=C/C(=O)Nc1cc2c(Nc3ccc(F)c(Cl)c3)ncnc2cc1O[C@H]1CCOC1 [AFATINIB]
IC50 (GCT): > 0.5 µM | IC50 (NCI-H1838): > 0.5 µM | IC50 (SK-N-FI): > 0.5 µM | IC50 (ETK-1): > 0.5 µM | IC50 (SW 962): > 0.5 µM | IC50 (SAS): 0.484 µM | IC50 (Becker): > 0.5 µM | IC50 (UACC-893): 0.119 µM | IC50 (KP-4): > 0.5 µM | IC50 (SW684): > 0.5 µM | IC50 (KYSE-520 cell line): > 0.5 µM | IC50 (KALS-1): > 0.5 µM | IC50 (NCI-H2126): > 0.5 µM | IC50 (NB69): > 0.5 µM | IC50 (NB13): > 0.5 µM | IC50 (IA-LM): > 0.5 µM | IC50 (NCI-H2122): > 0.5 µM | IC50 (SK-NEP-1): > 0.5 µM | IC50 (NCI-H1563): > 0.5 µM | IC50 (HT1197): > 0.5 µM | IC50 (BT-20): > 0.5 µM | IC50 (HT): > 0.5 µM | IC50 (BXPC-3): > 0.5 µM | IC50 (Ca-Ski): > 0.5 µM | IC50 (LAMA-84): > 0.5 µM | IC50 (BHY): 0.287 µM | IC50 (NEC8): > 0.5 µM | IC50 (DMS-114): > 0.5 µM | IC50 (NCI-H1395): > 0.5 µM | IC50 (A101D): > 0.5 µM | IC50 (SK-MEL-24): > 0.5 µM | IC50 (CTB-1): > 0.5 µM | IC50 (YKG-1): > 0.5 µM | IC50 (LB2241-RCC): 0.109 µM | IC50 (SK-MEL-28): > 0.5 µM | IC50 (SW1783): > 0.5 µM | IC50 (MCF7): > 0.5 µM | IC50 (G-401): > 0.5 µM | IC50 (ALL-PO): > 0.5 µM | IC50 (NB12): > 0.5 µM | IC50 (OS-RC-2): > 0.5 µM | IC50 (NCI-H2087): > 0.5 µM | IC50 5637: > 0.5 µM | IC50 (Lu-65): 0.126 µM | IC50 (MG-63): > 0.5 µM | IC50 (HCC1806): > 0.5 µM | IC50 (SW948): > 0.5 µM | IC50 (LB373-MEL-D): > 0.5 µM | IC50 (D-263MG): > 0.5 µM | IC50 (CTV-1): > 0.5 µM | IC50 (HEC-1): > 0.5 µM | IC50 (SW626): > 0.5 µM

O=C(NOCC1CC1)c1ccc(F)c(F)c1Nc1ccc(I)cc1Cl [CI-1040]
IC50 (GCT): > 10 µM | IC50 (NCI-H1838): > 10 µM | IC50 (SK-N-FI): 8.81 µM | IC50 (ETK-1): > 10 µM | IC50 (SW 962): > 10 µM | IC50 (SAS): > 10 µM | IC50 (Becker): > 10 µM | IC50 (UACC-893): > 10 µM | IC50 (KP-4): > 10 µM | IC50 (SW684): > 10 µM | IC50 (KYSE-520 cell line): > 10 µM | IC50 (KALS-1): > 10 µM | IC50 (NCI-H2126): 9.01 µM | IC50 (NB69): 1.78 µM | IC50 (NB13): > 10 µM | IC50 (IA-LM): > 10 µM | IC50 (NCI-H2122): 6.62 µM | IC50 (SK-NEP-1): > 10 µM | IC50 (NCI-H1563): > 10 µM | IC50 (HT1197): > 10 µM | IC50 (BT-20): > 10 µM | IC50 (HT): > 10 µM | IC50 (BXPC-3): > 10 µM | IC50 (Ca-Ski): > 10 µM | IC50 (LAMA-84): 3.14 µM | IC50 (BHY): > 10 µM | IC50 (NEC8): > 10 µM | IC50 (DMS-114): > 10 µM | IC50 (NCI-H1395): > 10 µM | IC50 (A101D): 0.214 µM | IC50 (SK-MEL-24): 0.328 µM | IC50 (CTB-1): 3.47 µM | IC50 (YKG-1): 9.75 µM | IC50 (LB2241-RCC): 2.86 µM | IC50 (SK-MEL-28): 0.304 µM | IC50 (SW1783): > 10 µM | IC50 (MCF7): > 10 µM | IC50 (G-401): > 10 µM | IC50 (ALL-PO): 4.36 µM | IC50 (NB12): > 10 µM | IC50 (OS-RC-2): > 10 µM | IC50 (NCI-H2087): 3.85 µM | IC50 5637: > 10 µM | IC50 (Lu-65): > 10 µM | IC50 (MG-63): > 10 µM | IC50 (HCC1806): > 10 µM | IC50 (SW948): > 10 µM | IC50 (LB373-MEL-D): > 10 µM | IC50 (D-263MG): 5.88 µM | IC50 (CTV-1): > 10 µM | IC50 (HEC-1): > 10 µM | IC50 (SW626): 4.04 µM
